According to PubChem BioAssay (NCI):
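Results reflect a 48-hour exposure of cells in 96-well plates to compound at five concentrations. At the TGI there is no net growth.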

Key:
Experiment in all cases: NCI anticancer screen, dose series, 48 h
OVCAR-4 ovarian = tested on: OVCAR-4 ovarian
DU-145 prostate = tested on: DU-145 prostate
UO-31 renal = tested on: UO-31 renal
RXF 393 renal = tested on: RXF 393 renal
ACHN renal = tested on: ACHN renal
SF-268 CNS = tested on: SF-268 CNS
KM12 colon = tested on: KM12 colon
COLO 205 colon = tested on: COLO 205 colon
OVCAR-5 ovarian = tested on: OVCAR-5 ovarian
SK-MEL-5 melanoma = tested on: SK-MEL-5 melanoma
SNB-19 CNS = tested on: SNB-19 CNS
OVCAR-3 ovarian = tested on: OVCAR-3 ovarian
MALME-3M melanoma = tested on: MALME-3M melanoma
SNB-75 CNS = tested on: SNB-75 CNS
PC-3 prostate = tested on: PC-3 prostate

Structure (SMILES)	TGI (OVCAR-4 ovarian) [µM]	TGI (DU-145 prostate) [µM]	TGI (UO-31 renal) [µM]	TGI (RXF 393 renal) [µM]	TGI (ACHN renal) [µM]	TGI (SF-268 CNS) [µM]	TGI (KM12 colon) [µM]	TGI (COLO 205 colon) [µM]	TGI (OVCAR-5 ovarian) [µM]	TGI (SK-MEL-5 melanoma) [µM]	TGI (SNB-19 CNS) [µM]	TGI (OVCAR-3 ovarian) [µM]	TGI (MALME-3M melanoma) [µM]	TGI (SNB-75 CNS) [µM]	TGI (PC-3 prostate) [µM]
CC12CC(C#N)(C#N)C(C#N)(CO1)C(=N)O2 (stereo not given)	> 100	> 100	> 100	> 100	> 100	> 100	> 100	> 100	> 100	> 100	> 100	> 100	90.8	> 100	> 100
COc1cccc2c1C(=O)c1c(O)c3c(c(O)c1C2=O)C[C@@](O)(C(=O)CO)C[C@@H]3OC1CC(N)C(OC)C(C)O1 (stereo not given in full)	9.67	> 100	1.41	0.825	0.765	1.97	0.931	1.94	1.34	0.189	> 15.8	10.6	0.283	0.346	1.64
CC(C)(C)NC(=O)N1N=C(c2ccccc2)C1c1ccccc1 (stereo not given)	> 100	> 100	63.1	36.6	> 100	> 100	> 100	> 100	> 100	47	> 100	50.3	45.6	> 100	56.5
O=S(=O)(O)c1ccc(N=Nc2ccc(N=Nc3c(O)ccc4ccccc34)cc2)cc1	> 100	> 100	> 100	> 100	> 100	> 100	> 100	> 100	> 100	> 100	> 100	> 100	> 100	> 100	> 100
Cc1cc(C)nc(NS(=O)(=O)c2ccc(NNC(=O)c3cccc4c(=O)c5ccccc5[nH]c34)cc2)n1	> 100	> 100	> 100	> 100	> 100	> 100	> 100	> 100	> 100	> 100	> 100	> 100	> 100	77.7	> 100
COc1ccc(C(OCC2OC(n3cc(C)c(=O)[nH]c3=O)CC2n2cc(Cn3cc(Br)c(=O)[nH]c3=O)nn2)(c2ccccc2)c2ccccc2)cc1 (stereo not given)	> 100	> 100	> 100	> 100	> 100	> 100	> 100	> 100	> 100	> 100	> 100	> 100	> 100	> 100	> 100
CC(NNC(=O)CC(=O)N(C(=O)c1ccccc1)c1ccc(Cl)cc1)c1cc2ccccc2oc1=O (stereo not given)	> 10	> 10	0.275	> 10	> 10	> 10	> 10	> 10	> 10	> 10	> 10	> 10	> 10	> 10	> 10
O=[N+]([O-])c1cc2c(c3nonc13)OCCCCO2	27.4	28.2	19.7	20	19.6	27.3	20.7	17.9	26.2	21.2	34.6	7.53	11.9	22.7	41.7
CCOC(=O)C1=C(N)Oc2ccc(Br)cc2C1C(C#N)C(=O)OCC (stereo not given)	44.8	> 100	35.8	22	33.6	38.5	62.7	42.3	66.3	42.6	68.1	39.7	41	> 100	43.4
C[C@H]1C2Cc3cc(N)ccc3[C@@]1(C)CCN2CCc1ccccc1	> 100	> 100	> 100	> 100	> 100	> 100	> 100	32.9	> 100	37.2	> 100	92.6	54	> 100	49.9
CCOC(=O)NC1CN2CCC1CC2 (stereo not given)	> 100	> 100	> 100	> 100	> 100	> 100	> 100	> 100	> 100	> 100	> 100	> 100	> 100	> 100	> 100
O=C(c1cc(Cl)cc(Cl)c1)N1CCN(C(=O)c2cc(Cl)cc(Cl)c2)C1=S	38.4	21.5	6.08	26.4	29.6	37.6	24.8	35.2	42.2	33.7	37.1	26.9	25.5	27.8	30.3
CCCCn1c(C)c2c(c1C)C(=O)N(CC(O)CN1CCc3ccccc3C1)C2=O (stereo not given)	> 100	> 100	> 100	> 100	> 100	> 100	> 100	> 100	> 100	> 100	> 100	> 100	> 100	> 100	> 100
COC(=O)C1C=CN(N(C)C)C2=C1C(=O)c1c(O)cccc1C2=O (stereo not given)	5.57	2.96	15.8	14.1	12.4	17.3	6.95	3.66	4.62	1.77	5.58	5.82	2.93	3.19	> 100
